Reference: patent US20180326022A1, “COMPOSITIONS AND METHODS FOR IMPROVING HEART FUNCTION AND TREATING HEART FAILURE” (The Trustees of the University of Pennsylvania, priority 2017, published 2018)

Key:
[1] = system: primary adult rat cardiomyocytes; assay: Cell contractility (sarcomere shortening, 1 Hz pacing); format: cell-based; details: for contraction amplitudes and velocities: primary adult rat cardiomyocytes, vinblastine 20 μM 2 hr, nocodazole 1 μM 30 min, costunolide 10 μM 2 hr
Experimental: (§1) Viral constructs were permitted to express for 24-72 hours with Moi=100-200. Parthenolide (Fisher Scientific NC9013142) treatment was carried out at room temperature for 2 hours at 10 μM. All experiments were performed within 48 hours of isolation, except those involving shTTL, which were allowed 72 hours to improve knockdown efficiency.
Experiments were performed in custom-fabricated cell chambers (Ionoptix) mounted on an LSM Zeiss 780 inverted confocal microscope using a 40× oil 1.4 NA objective and transmitted light camera (IonOptix MyoCam-S). For contractility assays, cells were maintained in NT solution and electrical field stimulation was provided at 1 Hz with a myopacer (IonOptix MYP100) through platinum electrodes lowered into the bath. Sarcomere length was measured optically by Fourier transform analysis (IonWizard, IonOptix). After 15 s of 1 Hz pacing to achieve steady state, five traces were recorded and analyzed.

[2] = system: rat cardiomyocytes; assay: Calcium measurements (Fluo-3 transients); format: cell-based; details: rat ventricular myocytes; 2 hrs of 10 μM EpoY
Experimental: Myocytes were loaded with Fluo-3 by 20 min incubation with 1 μM Fluo-3-acetoxymethyl ester (Invitrogen) and 0.01% Pluronic F127 (a poloxamer made by BASF, Florham Park N.J., USA), and allowed an additional 10 min for de-esterification. Cells were scanned using a 488 nm argon ion laser in confocal line-scan mode at 1.92 ms/line. Cells were electrically paced at 1 Hz for 20 s to achieve steady state; the final 5 traces of the pacing protocol were pooled and analyzed for calcium transient properties. The measured fluorescence (F) throughout the transient was normalized to the resting fluorescence prior to stimulation (F0) to normalize for heterogeneity in dye loading.

[3] = system: detyrosinated tubulin; assay: Western blotting of cardiomyocyte lysates (TTL, α-, detyr-, tyr-tubulin); format: cell-based; details: rat cardiomyocytes; PTL treatment; shTTL; short term EpoY
Experimental: as §1
For analysis of proteins expression levels quantitative Western blots were performed using infrared fluorescence imaging on an Odyssey Imager (LI-COR). Cell homogenates were prepared in ice-cold IGEPAL lysis buffer. After 1 freezing cycle lysates were spun at 18,000×g for 5 min. Aliquots of supernatants were mixed with 4× sample buffer (LI-COR, 928-40004) containing 10% BME, boiled for 6 min., and resolved on sodium dodecyl sulfate (SDS)-polyacrylamide gel electrophoresis Tris-glycine gels (Bio-Rad). Proteins were transferred to a membrane on Mini Trans-Blot Cell (Bio-Rad), blocked 1 h in Odyssey Blocking Buffer (TBS) (LI-COR, 927-50000), and probed with the corresponding primary antibody (see list below) for 2 h at room temperature. Membranes were then rinsed with TBST 4 times for 5 min, and incubated with secondary antibodies (below) for 1.5 h at room temperature. Membranes were rinsed again with TBST and then imaged on Odyssey Imager. Image analysis was performed using Image Studio Lite software (LI-COR). Fluorescent band intensity was always normalized to GAPDH loading control. Analysis of human tissue samples for levels of detyrosinated tubulin was performed blinded to the experimental groups.

[4] = system: human myocytes; assay: Cell contractility of human myocytes (0.5 Hz); format: cell-based
Experimental: (§2) Viable myocytes were concentrated by gravity (5-7 min) and supernatant was aspirated to remove dead cells. Myocytes were resuspended in NT solution containing 1 mM Ca^2+ and concentrated by gravity (5-7 min) again. Cardiomyocytes used acutely were maintained in NT solution for up to 6 hours. Myocytes were treated with 10 μM parthenolide (Fisher Scientific NC9013142 or Sigma P0667) or 10 μM colchicine (Sigma) at room temperature in NT solution for 2 hours. Experiments were performed within 6 hours of isolation, except for those involving viral transduction in cultured cells.
MatTek glass bottom dish was coated 5 μl of 0.5 mg/ml laminin and air dried for 10 min. Culture medium was F-10 (1×) Nutrient Mixture (Ham) [+] L-Glutamine (Life Technologies, 11550-043) supplemented with insulin-transferrin selenium-X (Gibco, 51500-056), 20 mM HEPES, 1 μg/μl primocin (Invivogen, ant-pm-1), 0.4 mM extra CaCl2, 5% FBS, 25 μM cytochalasin D (Cayman, 11330). Viable myocytes were concentrated and a proper amount of medium was added in culture so that neighboring cells were not in direct contact. Viral constructs were permitted to express for 48 hours with Moi=100-200. Adenoviral TTL-IRES-dsRed and EMTB-3x GFP were transduced in human myocytes as previously performed in rat myocytes. Myocytes were replenished with fresh warm medium without cytochalasin D before calcium and contractility measurements.
Experiments were performed as described in Example 1 with some modification. Contractility is measured in custom-fabricated cell chambers (Ionoptix) mounted on an LSM Zeiss 880 inverted confocal microscope using a 40× oil 1.4 NA objective and transmitted light camera (IonOptix MyoCam-S). Myoyctes were maintained in NT solution (for freshly isolated myocytes) or culture medium (without cytochalasin D, for cultured myocytes) at room temperature and electrical field stimulation was provided at 0.5 Hz with a myopacer (IonOptix MYP100) through platinum electrodes lowered into the bath. Sarcomere length was measured optically by Fourier transform analysis (IonWizard, IonOptix). After 10-30 s of 0.5 Hz pacing to achieve steady state, five traces were recorded and analyzed. If not specified, contractility data was obtained at room temperature.
To test whether the contractile improvement over MT destabilization remains under more physiological conditions, both 0.5 Hz and 1 Hz contractions at 37 C were recorded and analyzed in a small subset of isolated human myocytes (1 NF and 1 failing heart, FIG. 29C).

[5] = system: cardiac and skeletal muscle; details: 10 μM; refs (13), (8); cited from earlier work
[6] = system: human myocytes; assay: Nanoindentation stiffness measurements; format: cell-based; details: failing human myocytes; 10 μM, 2 hours
Experimental: as §2
MatTek glass bottom dish was coated 5 μl of 0.5 mg/ml laminin and air dried for 10 min. Culture medium was F-10 (1×) Nutrient Mixture (Ham) [+] L-Glutamine (Life Technologies, 11550-043) supplemented with insulin-transferrin selenium-X (Gibco, 51500-056), 20 mM HEPES, 1 μg/μl primocin (Invivogen, ant-pm-1), 0.4 mM extra CaCl2, 5% FBS, 25 μM cytochalasin D (Cayman, 11330). Viable myocytes were concentrated and a proper amount of medium was added in culture so that neighboring cells were not in direct contact. […]
Mechanical properties at the microscopic scale were measured using nanoindentation (Piuma, Optics11, The Netherlands). […] The Young's moduli were calculated automatically by the software, by fitting the force vs. indentation curve to the Hertz equation. […]

[7] = system: human myocytes; assay: Calcium measurements in human myocytes; format: cell-based
Experimental: as §2
Calcium measurements were carried out as described in Example 1 with the following modifications. Myocytes were loaded with 1 μM Fluo-3-acetoxymethyl ester (Invitrogen) and 15% Pluronic F127 (a poloxamer made by BASF, Florham Park, N.J., USA) for 15 minutes. Cells were scanned using a 488-nm argon ion laser in confocal line-scan mode at 0.909 ms/line. Cells were electrically paced at 0.5 Hz at room temperature for 30 s to achieve steady state; five steady-state transients of each myocyte were averaged, pooled in groups and analyzed for calcium transient properties. The measured fluorescence (F) throughout the transient was normalized to the resting fluorescence prior to stimulation (F0) to normalize for heterogeneity in dye loading.

SMILES: CC[C@]1(O)C[C@@H]2CN(CCc3c([nH]c4ccccc34)[C@@](C(=O)OC)(c3cc4c(cc3OC)N(C)[C@H]3[C@@](O)(C(=O)OC)[C@H](OC(C)=O)[C@]5(CC)C=CCN6CC[C@]43[C@@H]65)C2)C1 [vinblastine]
- contraction amplitudes and velocities [1]: effective to increase

SMILES: C=C1C(=O)O[C@@H]2/C=C(\C)CC/C=C(\C)CC[C@@H]12 [costunolide, (3aS,6E,10E,11aR)-6,10-dimethyl-3-methylidene-3a,4,5,8,9,11a-hexahydrocyclodeca[b]furan-2-one]
- contraction amplitudes and velocities [1]: effective to increase

SMILES: CCOC(=O)C1O[C@@H]1C(=O)N[C@@H](Cc1ccc(O)cc1)C(=O)O (some centres unmarked) [EpoY]
- electrically evoked [Ca2+]i transients [2]: not changed
- contractility (amplitude of contraction, velocity of contraction and relaxation) ([1]; rat ventricular myocytes, 2 hrs of 10 μM EpoY): enhanced
- alpha / total tubulin levels (western blot) [3]: without changing
- detyrosinated tubulin (western blot) [3]: specifically reduces detyrosination

SMILES: COC(=O)Nc1nc2ccc(C(=O)c3cccs3)cc2[nH]1 [nocodazole]
- contraction amplitudes and velocities [1]: effective to increase

SMILES: COc1cc2c(c(OC)c1OC)-c1ccc(OC)c(=O)cc1[C@@H](NC(C)=O)CC2 [colchicine, (S)—N-(5,6,7,9-tetrahydro-1,2,3,10-tetramethoxy-9 oxobenzol[a]heptalen-7-yl) acetamide]
- shortening amplitude and contractile velocities ([4]; NF human myocytes, 10 μM, 2 hours): modest (yet significant) increases
- restoration of lost function (contractile velocities vs NF benchmark) ([4]; failing human myocytes): ~50%
- shortening amplitude and velocity, speed of relaxation ([4]; failing human myocytes, 10 μM, 2 hours): robustly improved
- effect on microtubules [5]: broadly depolymerizes MTs
- viscoelasticity (Emax and EΔ) [6]: robustly reduced viscoelasticity
- Ca2+ cycling ([7]; any group (NF and failing human myocytes)): no significant effect
- impaired [Ca2+]i cycling ([7]; failing human myocytes): neither colch nor PTL treatment improved
